Data taken from patent US20260184675A1, “CHIRAL ISOMERIC SULFITE COMPOUND AND APPLICATION THEREOF” (Chengdu Hanova BioSciences Co., Ltd, priority 2024, published 2026).

Columns and labels:
Type in all cases: in vivo
[1] = test system: eggs of Spodoptera litura; assay: Effect on hatching of eggs of Spodoptera litura, egg piece soaking; conditions: Spodoptera litura eggs, 500 ppm; for Hatching rate (%), Replicate 1 / Hatching rate (%), Replicate 2 / Hatching rate (%), Replicate 3: 4 days after delivery; for Number of unhatched larvae 4 days after insecticide delivery, Replicate 1 / Number of unhatched larvae 4 days after insecticide delivery, Replicate 2 / Number of unhatched larvae 4 days after insecticide delivery, Replicate 3: soaked 10 minutes
Description: • (1) Preparation of paper containing eggs: the egg mass was cut into small pieces, each containing about 60 eggs, soaked in a preformulated test agent for 10 minutes together with paper for egg raising (concentration of each compound of 500 ppm). After taken out, absorbent paper was used to absorb the excess solution adhered to the paper for egg raising and egg pieces. (2) Cultivation: Each egg piece was separately placed in a glass test tube (5.0 cm in height, 2.5 cm in diameter, the same below), which was sealed with plastic paper punctured with fine holes using insect needles and cultivated in an artificial climate chamber at a temperature of (24±1° C.), a relative humidity of (80±10) %, and a photoperiod of L:D=12:12. When the eggs developed until they were about to hatch, castor leaves with a diameter of about 3 cm were added for feeding the hatching larvae; • (3) Observation: the number of hatched and unhatched eggs per egg piece was checked and recorded, and the hatching rate of eggs was calculated according to the formula. Each treatment was repeated for 3 times. • (4) Survey of results: The experimental materials of each treatment group were regularly hydrated and moisturized, and the hatching of eggs was observed. On the 4th day after insecticide delivery, the number of hatched eggs for each treatment was recorded, and the survey of results was recorded in the original notebook. According to the experimental requirements and characteristics of agents, the survey time can be shortened or extended. • 1) Surveying and recording the number of hatched eggs for each treatment. • 2) Recording the developmental status of experimental eggs of Spodoptera litura, behavior status of nymphs, including abnormal phenomena such as delayed or stopped development of eggs of Spodoptera litura, etc. • (5) Calculation method: Based on the survey data, the prevention and control effect of each treatment was calculated according to the following formula, and the calculation results were kept to two decimal places. [formula] [formula]

[2] = test system: eggs of Tetranychus urticae; assay: Effect on hatching of eggs of Tetranychus urticae, leaf disc method; conditions: 5 ppm; for Hatching rate (%): 5 days after insecticide delivery
Description: (§1) • (1) Preparation of leaf discs containing eggs: 20 female adult mites of Tetranychus cinnabarinus were transferred onto leaf discs of Vicia faba with a diameter of 2.0 cm (with wetted filter paper at the bottom), then covered it with a lidded culture dish and cultivated under moisturizing conditions, the adult mites were removed within 36 hours and microscopic examination and counting were performed on leaf discs containing eggs. • (2) Investigation of egg population base: Before pesticide soaking, a microscopic examination was conducted on the egg basic number of each leaf disc, with 2 replicates set for each treatment. • (3) Pesticide soaking treatment: The leaf butterflies loaded with mite eggs were soaked in clear water and sulfite compounds for 10 seconds, respectively, then taken out and cultivated under moisturizing conditions. Each treatment should be repeated for no less than 3 times. • (4) Cultivation and observation: The […] were cultivated under normal conditions. Five days after insecticide delivery, the hatching status of mite eggs was investigated. • Note: The temperature and humidity conditions of the constant temperature and humidity incubator after the treatment should be controlled so as to avoid excessive temperature differences, which may cause generation and dripping of condensate water in the culture dish, resulting in abnormal death of eggs due to soaking in water; it is also necessary to ensure sufficient strong ambient light, without directing irradiating the leaves. • (5) Survey of Results: The experimental materials of each treatment group were regularly hydrated and moisturized, and the hatching of eggs was observed. On the 7th day after insecticide delivery, the number of hatched eggs for each treatment was recorded, and the survey of results was recorded in the original notebook. According to the experimental requirements and characteristics of agents, the survey time can be shortened or extended.
(§2) • 1) Surveying and recording the number of hatched eggs for each treatment. • 2) Photographing and recording whether there was any pesticide damage to the leaf discs of Vicia faba. • 3) Recording the developmental status of experimental mite eggs, behavior status of nymph mites, including abnormal phenomena such as delayed or stopped development of mite eggs, difficulty in breaking hull for nymph mites, or painful struggles after hatching, etc. • (6) Calculation method: Based on the survey data, the prevention and control effect of each treatment was calculated according to the following formula, and the calculation results were kept to two decimal places.
(§3) This test adopted the method in Test Example 1 of technical section, mainly used leaf disc method to explore the inhibitory effect on hatching of eggs of Tetranychus urticae by compounds 1-(S,S), 1-(S,R), 1-(R,R), 1-(R,S), 1′-(S,S), 1′-(S,R), 1′-(R,R), 1′-(R,S), compound 1, compound 1′, S-10, R-10, S-10′, R-10′, compound 10, compound 10′, compound 19-(S,S), 19-(S,R), 19-(R,R), 19-(R,S), 19′-(S,S), 19′-(S,R), 19′-(R,R), 19′-(R,S), compound 19, and compound 19′. The concentration of all compounds was 5 ppm.

eggs of Aleyrodidae = assay: Effect on hatching of eggs of Aleyrodidae, leaf disc method; conditions: Aleyrodidae eggs, 10 ppm; for Hatching rate (%), Replicate 1 / Hatching rate (%), Replicate 2 / Hatching rate (%), Replicate 3: 5 days after delivery; for Number of hatched larvae 5 days after insecticide delivery, Replicate 1 / Number of hatched larvae 5 days after insecticide delivery, Replicate 2 / Number of hatched larvae 5 days after insecticide delivery, Replicate 3: leaf disc
Description: as §1, §2
as §3, with “Aleyrodidae” for “Tetranychus urticae”, “10” for “5”

eggs of Thrips = assay: Effect on hatching of eggs of Thrips, leaf disc method; conditions: 100 ppm; for Hatching rate (%): 5 days after insecticide delivery
Description: as §1, §2
as §3, with “Thrips” for “Tetranychus urticae”, “by” for “by compounds”, “100” for “5”

[3] = Replicate 1, listed as 19-(R, R)
[4] = Replicate 2, listed as 19-(R, R)
[5] = Replicate 3, listed as 19-(R, R)
[6] = Replicate 1, listed as 1-(S, R)
[7] = Replicate 2, listed as 1-(S, R)
[8] = Replicate 3, listed as 1-(S, R)

Compound: CCC(COc1ccc(Cl)cc1Cl)OS(=O)OCCF [19-(R,R)]
- Hatching rate (%), Replicate 1 ([1]; listed as 19-(R, R)): 50.85%
- Hatching rate (%), Replicate 2 ([1]; listed as 19-(R, R)): 51.61%
- Hatching rate (%), Replicate 3 ([1]; listed as 19-(R, R)): 50.79%
- Number of unhatched larvae 4 days after insecticide delivery, Replicate 1 ([1]; listed as 19-(R, R)): 29
- Number of unhatched larvae 4 days after insecticide delivery, Replicate 2 ([1]; listed as 19-(R, R)): 30
- Number of unhatched larvae 4 days after insecticide delivery, Replicate 3 ([1]; listed as 19-(R, R)): 31
- Hatching rate (%) [2, 3]: 17.98%
- Hatching rate (%) [2, 4]: 17.92%
- Number of hatched larvae 5 days after insecticide delivery [2, 3]: 16
- Number of hatched larvae 5 days after insecticide delivery [2, 4]: 19
- Hatching rate (%), Replicate 1 (eggs of Aleyrodidae; listed as 19-(R, R)): 11.96%
- Hatching rate (%), Replicate 2 (eggs of Aleyrodidae; listed as 19-(R, R)): 10.20%
- Hatching rate (%), Replicate 3 (eggs of Aleyrodidae; listed as 19-(R, R)): 11.20%
- Number of hatched larvae 5 days after insecticide delivery, Replicate 1 (eggs of Aleyrodidae; listed as 19-(R, R)): 11
- Number of hatched larvae 5 days after insecticide delivery, Replicate 2 (eggs of Aleyrodidae; listed as 19-(R, R)): 10
- Number of hatched larvae 5 days after insecticide delivery, Replicate 3 (eggs of Aleyrodidae; listed as 19-(R, R)): 14
- Hatching rate (%) (eggs of Thrips; [3]): 12.63%
- Hatching rate (%) (eggs of Thrips; [4]): 13.46%
- Hatching rate (%) (eggs of Thrips; [5]): 13.04%
- Number of hatched larvae 5 days after insecticide delivery (eggs of Thrips; [3]): 12
- Number of hatched larvae 5 days after insecticide delivery (eggs of Thrips; [4]): 14
- Number of hatched larvae 5 days after insecticide delivery (eggs of Thrips; [5]): 15

Compound: C[C@@H](COS(=O)OCCF)Oc1ccc(Cl)cc1Cl (stereo partly drawn) [1-(S,R)]
- Hatching rate (%), Replicate 1 ([1]; listed as 1-(S, R)): 62.30%
- Hatching rate (%), Replicate 2 ([1]; listed as 1-(S, R)): 63.08%
- Hatching rate (%), Replicate 3 ([1]; listed as 1-(S, R)): 60.34%
- Number of unhatched larvae 4 days after insecticide delivery, Replicate 1 ([1]; listed as 1-(S, R)): 23
- Number of unhatched larvae 4 days after insecticide delivery, Replicate 2 ([1]; listed as 1-(S, R)): 24
- Number of unhatched larvae 4 days after insecticide delivery, Replicate 3 ([1]; listed as 1-(S, R)): 23
- Hatching rate (%) [2, 6]: 10.87%
- Hatching rate (%) [2, 7]: 12.16%
- Number of hatched larvae 5 days after insecticide delivery [2, 6]: 10
- Number of hatched larvae 5 days after insecticide delivery [2, 7]: 9
- Hatching rate (%), Replicate 1 (eggs of Aleyrodidae; listed as 1-(S, R)): 9.65%
- Hatching rate (%), Replicate 2 (eggs of Aleyrodidae; listed as 1-(S, R)): 9.38%
- Hatching rate (%), Replicate 3 (eggs of Aleyrodidae; listed as 1-(S, R)): 10.48%
- Number of hatched larvae 5 days after insecticide delivery, Replicate 1 (eggs of Aleyrodidae; listed as 1-(S, R)): 11
- Number of hatched larvae 5 days after insecticide delivery, Replicate 2 (eggs of Aleyrodidae; listed as 1-(S, R)): 12
- Number of hatched larvae 5 days after insecticide delivery, Replicate 3 (eggs of Aleyrodidae; listed as 1-(S, R)): 11
- Hatching rate (%) (eggs of Thrips; [6]): 12.06%
- Hatching rate (%) (eggs of Thrips; [7]): 8.33%
- Hatching rate (%) (eggs of Thrips; [8]): 10.28%
- Number of hatched larvae 5 days after insecticide delivery (eggs of Thrips; [6]): 17
- Number of hatched larvae 5 days after insecticide delivery (eggs of Thrips; [7]): 8
- Number of hatched larvae 5 days after insecticide delivery (eggs of Thrips; [8]): 11
